In article PMC9044549 (RSC Advances, 2021):

How the values were obtained:
[1] = system: MCF-7 breast cancer cells; test: In vitro anti-proliferative activity, MTT assay; format: cell-based; settings: Homo sapiens, MCF7, read-out: In vitro anti-proliferative activities MCF-7 IC50
[2] = system: HCT-116, HepG-2 and MCF-7 cells; format: cell-based; settings: Homo sapiens, read-out: IC50 values against the three cell lines (range)

Row | SMILES | IC50 [1] | IC50 [2]
1 | COc1ccc(/C=N/NC(=O)c2ccc(-c3cc(OC)c(OC)c(OC)c3)nc2C)cc1OC [Vc, (E)-N′-(3,4-Dimethoxybenzylidene)-2-methyl-6-(3,4,5-trimethoxyphenyl)nicotinohydrazide] | 9.15 ± 0.31 µM | 3.25 to 9.15 µM
2 | COc1cc(OC)c(/C=N/NC(=O)c2ccc(-c3cc(OC)c(OC)c(OC)c3)nc2C)c(OC)c1 [Vd, (E)-2-Methyl-N′-(2,4,6-trimethoxybenzylidene)-6-(3,4,5-trimethoxyphenyl)nicotinohydrazide] | 15.8 ± 0.46 µM | 10.8 to 31.5 µM
3 | COc1cc(-c2ccc(C(=O)N/N=C/c3cc(Cl)ccc3Cl)c(C)n2)cc(OC)c1OC [Vh, (E)-N′-(2,5-Dichlorobenzylidene)-2-methyl-6-(3,4,5-trimethoxyphenyl)nicotinohydrazide] | 30.1 ± 0.75 µM | 10.8 to 31.5 µM
4 | COc1ccccc1/C=N/NC(=O)c1ccc(-c2cc(OC)c(OC)c(OC)c2)nc1C [Vb, (E)-N′-(2-Methoxybenzylidene)-2-methyl-6-(3,4,5-trimethoxyphenyl)nicotinohydrazide] | 8.5 ± 0.24 µM | 3.25 to 9.15 µM
5 | COc1cc(-c2ccc(C(=O)N/N=C/c3ccc(Cl)cc3)c(C)n2)cc(OC)c1OC [Vg, (E)-N′-(4-Chlorobenzylidene)-2-methyl-6-(3,4,5-trimethoxyphenyl)nicotinohydrazide] | 31.5 ± 0.7 µM | 10.8 to 31.5 µM
6 | COc1cc(-c2ccc(-c3nnc(SC)o3)c(C)n2)cc(OC)c1OC [VIIIa, 2-[2-Methyl-6-(3,4,5-trimethoxyphenyl)pyridin-3-yl]-5-(methylthio)-1,3,4-oxadiazole] | 18.2 ± 0.55 µM | 10.8 to 31.5 µM
7 | COc1cc(-c2ccc(C(=O)N/N=C/c3ccc([N+](=O)[O-])cc3)c(C)n2)cc(OC)c1OC [Vj, (E)-2-Methyl-N′-(4-nitrobenzylidene)-6-(3,4,5-trimethoxyphenyl)nicotinohydrazide] | 4.82 ± 0.05 µM | 3.25 to 9.15 µM
8 | COc1cc(-c2ccc(-c3nnc(SCC4CCCCC4)o3)c(C)n2)cc(OC)c1OC [VIIIe, 2-[(Cyclohexylmethyl)thio]-5-[2-methyl-6-(3,4,5-trimethoxyphenyl)pyridin-3-yl]-1,3,4-oxadiazole] | 21.4 ± 0.45 µM | 10.8 to 31.5 µM
9 | COc1cc(-c2ccc(C(=O)N/N=C/c3ccc(O)cc3)c(C)n2)cc(OC)c1OC [Va, (E)-N′-(4-Hydroxybenzylidene)-2-methyl-6-(3,4,5-trimethoxyphenyl)nicotinohydrazide] | 21.5 ± 0.67 µM | 10.8 to 31.5 µM
10 | COc1cc(-c2ccc(C(=O)N/N=C/c3cc(C)ccc3C)c(C)n2)cc(OC)c1OC [Vf, (E)-N′-(2,5-Dimethylbenzylidene)-2-methyl-6-(3,4,5-trimethoxyphenyl)nicotinohydrazide] | 6.32 ± 0.14 µM | 3.25 to 9.15 µM
11 | CCOc1ccc(/C=N/NC(=O)c2ccc(-c3cc(OC)c(OC)c(OC)c3)nc2C)cc1 [Ve, (E)-N′-(4-Ethoxybenzylidene)-2-methyl-6-(3,4,5-trimethoxyphenyl)nicotinohydrazide] | 46.6 ± 0.95 µM | –
12 | CCSc1nnc(-c2ccc(-c3cc(OC)c(OC)c(OC)c3)nc2C)o1 [VIIIb, 2-(Ethylthio)-5-[2-methyl-6-(3,4,5-trimethoxyphenyl)pyridin-3-yl]-1,3,4-oxadiazole] | 14.8 ± 0.37 µM | –
13 | COc1cc(-c2ccc(C(=O)N/N=C/c3ccncc3)c(C)n2)cc(OC)c1OC [Vk, (E)-2-Methyl-N′-(pyridin-4-ylmethylene)-6-(3,4,5-trimethoxyphenyl)nicotinohydrazide] | 17.5 ± 0.57 µM | 10.8 to 31.5 µM
14 | CCCCCCSc1nnc(-c2ccc(-c3cc(OC)c(OC)c(OC)c3)nc2C)o1 [VIIId, 2-(Hexylthio)-5-[2-methyl-6-(3,4,5-trimethoxyphenyl)pyridin-3-yl]-1,3,4-oxadiazole] | 27.2 ± 0.68 µM | 10.8 to 31.5 µM
15 | COc1cc(-c2ccc(-c3nnc(SCCCBr)o3)c(C)n2)cc(OC)c1OC [VIIIc, 2-[(3-Bromopropyl)thio]-5-[2-methyl-6-(3,4,5-trimethoxyphenyl)pyridin-3-yl]-1,3,4-oxadiazole] | 25.2 ± 0.64 µM | 10.8 to 31.5 µM
